In US8735439B2, “Chlorin e6-folic acid conjugate, preparation method thereof, and a pharmaceutical composition for the treatment of cancer comprising the same” (Diatech Korea Co., Ltd., priority 2009, dated 2014):
“And” between values parts separate entries of the source, which are not always exact repeats. Identical values can stand only once.

Legend:
Hela cells = test: Phototoxicity, 24 h incubation, 1.5-15 joule/cm^2; assay type: cell-based; conditions: 670-690 nm
Description: In other experiment, the cells were incubated with photosensitizers at 37° C. for 24 hours, and irradiated by exposed on ice by a laser medical device “LD 680-2000” (wavelength of 670-690 nm) in a dose of 1.5-15 joule/cm^2.

[1] = Generation of singlet oxygen (luminescence at 1270 nm); assay type: physicochemical
Description: Photoresponse of this process (φΔ) was measured by a relative method through integral intensity of singlet oxygen luminescence at a wavelength of 1270 nm. Excitation was conducted at a wavelength of 531 nm (pulse energy 4 microJ, frequency 1 kHz). Tests were made in air saturated buffer solutions at room temperature. […] The φΔ in D2O was considered as 0.7.
To analyze kinetic curves of singlet oxygen luminescence, the following function was used:
wherein A is a coefficient depending on initial concentrations of interacted reagents, and k1 and k2 are constants of luminescence signal increase and extinction, respectively.
In the case when the deactivation rate constant Kτ of the photosensitizer triplet state exceeds the deactivation rate constant KΔ of the molecular oxygen […] state, the constant of increase k1 corresponds to Kτ, and constant of extinction k2 corresponds to KΔ. In the case of Kτ<KΔ, inversion of the kinetics of singlet oxygen luminescence occurs. In this case, k2=Kτ and k1=KΔ. […] Thus, based on kinetic data, the life times of singlet oxygen and triplet state can be calculated.

human serum albumin = human serum albumin (Homo sapiens, UniProt P02768); test: Pigment-protein complex formation with human serum albumin; conditions: HSA, number of binding positions n=1
Source text: Pigment-protein complexes have been formed by adding to the solution of human serum albumin (HAS) a specific amount of photosensitizer dissolved in the same buffer. […] Similarly, the photosensitizer was included in detergent micelle (Triton X-100, C=10^−3M).
wherein r and C are the respectively concentrations of bound and unbound protein pigment, r+C=CΣ. […] It is also applicable with respect to pigment molecules included in Triton X-100 micelle.

sarcoma M-1 = test: Necrotic area in sarcoma M-1 after PDT; assay type: in vivo, rats; conditions: for Necrotic area / Ratio of necrotic area to total area: PDT 100 J/cm^2 at 4 hours, mean of 25 slides
Description: 2 hours later the animals were killed by chloroform, the tumor was excised and fixed for one hour in 10%-HOM formalin. After fixation, transverse sections of the tumor nodule in its highest diameter were made, and pictures were taken by a camera connected to a computer.
For quantitative assessment of necroses formed after PDT, computer analysis of color tints of histo-topographic tumor slides was performed using a special program.
The program included an algorithm of blue color identification (Evans blue), which stained viable areas of the tumor. Tumor areas killed from direct cytotoxic effect or due to structural-functional disorders of microcirculation were not stained in blue. The ratio of all non-stained dots to the total amount of dots in the fence of the tumor slide was considered to be the destruction efficiency.
For this purpose, a laser medical instrument “ ? 680-2000” (BIOSPEC, Moscow) was used to perform the exposure at a wavelength of 670 nm in a dose of 100 J/cm^2. The power density was 0.51 W/cm^2, the output power was 0.4 W, and the spot light diameter was 1 cm. Time of exposure was […]. Monitoring over radiating power was conducted by a universal power meter included in the laser device “ ? 4680-2000”.

HeLa tumor cells = test: Cytotoxicity (antiproliferative assay) in the absence of light exposure; assay type: cell-based; conditions: for number of HeLa cells: no light, 24 hours
Description: Cytotoxicity was analyzed, considering the intensity of proliferative processes in cells, photosensitizer concentration, and dose of optical power. For each point, 3 flasks with cell monolayer were used.
The monolayer culture of HeLa tumor cells was chosen and used as the cell.
The culture of HeLa tumor cells was grown in nutrient medium 199 or in nutrient medium containing hemohydrolyzate supplemented with 10% fetal bovine serum and […] of kanamycin. […]
Flasks with light-protective cover (dark cytotoxicity) were incubated at 37.5° C. for 1 hour. The cells were washed with Hank's solution 4 times. 2.0 ml of fresh nutrient medium were added, and the cells were irradiated at the temperature of melting ice for 5, 10, 15 or 20 mins by the light flux of a “METALAZ” laser medical device (wavelength: 627.8 nm, 578.2 or 510.6 nm) or “LD 680-2000” (wavelength: 670-690 nm), depending on the wavelength of maximum spectral absorption of the studied photosensitizer, at a dose of 40 J/cm^2. After 20-24 hours, the number of tumor cell was counted in Goriaev's chamber.

[2] = Quenching of excited triplet states by molecular oxygen; assay type: physicochemical
Source text: The data presented in Table 2 supports the analysis of specific features of quenching of excited triplet states of chlorin e6-conjugate by molecular oxygen in solutions and biological systems.

[3] = air saturated buffer solution, room temperature

Chain of human serum albumin (P02768 25-609): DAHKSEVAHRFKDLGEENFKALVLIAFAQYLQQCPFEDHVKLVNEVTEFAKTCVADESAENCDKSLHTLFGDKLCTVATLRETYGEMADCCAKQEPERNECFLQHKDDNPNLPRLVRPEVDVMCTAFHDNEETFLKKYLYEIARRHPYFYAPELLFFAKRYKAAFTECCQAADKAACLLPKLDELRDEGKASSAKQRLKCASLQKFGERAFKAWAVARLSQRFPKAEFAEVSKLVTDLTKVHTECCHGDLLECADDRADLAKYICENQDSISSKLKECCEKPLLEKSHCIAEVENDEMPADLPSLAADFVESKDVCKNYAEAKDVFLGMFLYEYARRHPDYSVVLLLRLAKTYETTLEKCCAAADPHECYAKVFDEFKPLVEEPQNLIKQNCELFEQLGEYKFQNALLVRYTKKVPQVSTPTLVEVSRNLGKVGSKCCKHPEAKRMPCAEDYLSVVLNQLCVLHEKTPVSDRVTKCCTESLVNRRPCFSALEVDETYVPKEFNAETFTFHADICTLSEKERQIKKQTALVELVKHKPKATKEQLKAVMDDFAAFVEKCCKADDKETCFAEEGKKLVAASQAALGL

Substance: [γ-(6-aminohexyl)folic acid]-chlorin e6 [chlorin e6 conjugate]
- phototoxicity in survival test (Hela cells): improved the photosensitivity
- φΔ (efficiency of ^1O2 generation) ([1]; H2O, pH 8.1): 0.70
- φΔ (efficiency of ^1O2 generation) ([1]; HSA, H2O, pH 8.1): 0.63-
- φΔ (efficiency of ^1O2 generation) ([1]; Pyridine): 0.68
- φΔ (efficiency of ^1O2 generation) ([1]; Triton X-100): 0.80
- τt (life time of triplet state) from kinetic curves of singlet oxygen luminescence [1, 3]: 2.0±0.2 microsec.
- τΔ (life time of singlet oxygen) from kinetic curves of singlet oxygen luminescence [1, 3]: 3.6±0.2 microsec.
- photoresponse of photosensitized formation of singlet oxygen ([1]; pH 6.0): 0.52
- photoresponse of photosensitized formation of singlet oxygen ([1]; pH 8.1): 0.7
- binding constant κCB with protein (human serum albumin): 1.2e+06 M⁻¹
- Necrotic area (sarcoma M-1; 2.5 mg/kg): 0.637 cm^2
- Ratio of necrotic area to total area (sarcoma M-1; 2.5 mg/kg): 25.56±1.65% and 25.56%
- Necrotic area (sarcoma M-1; 5.0 mg/kg): 0.741 cm^2
- Ratio of necrotic area to total area (sarcoma M-1; 5.0 mg/kg): 34.16±2.16% and 34.16%
- anti-tumor effect compared among dose and exposure groups (sarcoma M-1; 10.0 mg/kg, 1 hr exposure): most prominent anti-tumor effect
- Necrotic area (sarcoma M-1; 10.0 mg/kg): 1.205 cm^2
- Ratio of necrotic area to total area (sarcoma M-1; 10.0 mg/kg): 66.16±3.83% and 66.16%
- Ratio of necrotic area to total area (sarcoma M-1; 10.0 mg/kg, listed as chlorin e6-folic acid conjugate): 66.16%
- cell survival rate (HeLa tumor cells; Hela cells, 24 hr incubation, absence of light exposure): about 90%
- number of HeLa cells (HeLa tumor cells; photosensitizer conc. 1 (μm)): 102.1 percentage of the control
- number of HeLa cells (HeLa tumor cells; photosensitizer conc. 2.5 (μm)): 95.6 percentage of the control
- number of HeLa cells (HeLa tumor cells; photosensitizer conc. 5.0 (μm)): 94.1 percentage of the control
- number of HeLa cells (HeLa tumor cells; photosensitizer conc. 10.0 (μm)): 95.9 percentage of the control
- number of HeLa cells (HeLa tumor cells; photosensitizer conc. 20.0 (μm)): 89.0 percentage of the control
- number of HeLa cells (HeLa tumor cells; photosensitizer conc. 30.0 (μm)): 86.6 percentage of the control
- bi-molecular rate constant for O2 quenching of the triplet excited state ([2]; Pyridine): 4.5×10^9 M^−1 c^−1
- bi-molecular rate constant for O2 quenching of the triplet excited state ([2]; buffer solution): 1.5×10^9 M^−1 c^−1
- bi-molecular rate constant for O2 quenching of the triplet excited state ([2]; lipid bilayer): 9×10^9 M^−1 c^−1
- bi-molecular rate constant for O2 quenching of the triplet excited state ([2]; micellar complex (Triton X-100), upper limit): 1.5×10^9 M^−1 c^−1
- bi-molecular rate constant for O2 quenching of the triplet excited state ([2]; pigment-protein complex, upper limit): 2.5×10^9 M^−1 c^−1
